Values joined by “and” are separate entries in the source; they are usually repeats but may differ in a detail not shown here. Equal entries are not always repeated. Where two headings read alike, the source gives them in different places.
Key:
[1] = Mucolytic activity: percent reduction in viscosity of sputum, cone-plate viscometer (method of Lieberman); set-up: species or system human; conditions: for Relative molar potency compared to N-acetyl-L-cysteine: on a molar basis, N-acetyl-L-cysteine = 1; for Mucolytic activity compared to N-acetyl-L-cysteine (in words): compared with N-acetyl-L-cysteine
Experimental: Mucolytic activity was determined using the method of J. Lieberman, Am. J. Resp. […] This is a viscometric method which employs a cone-plate viscometer (Brookfield Engineering Laboratories, Inc., Stoughton, Mass.). According to this method, a 2 ml. aliquot of a batch of purulent human sputum (obtained from bronchitic patients) is transferred to the center of the viscometer plate and the temperature is allowed to equilibrate. The plate is then rotated at gradually increasing speeds up to 100 r.p.m. during a 2-minute period. This reduces the amount of sputum on the test plate to 1 ml. and reduces the viscosity of the specimen to a reproducible value which is necessary because of the thixotropic properties of sputum. […] The test is repeated with N-acetyl-L-cysteine employing another aliquot of sputum to establish a control for comparison purposes. Relative molar potencies compared to N-acetyl-L-cysteine (NAC) can be determined by varying concentration of the test agent until approximately equivalent mucolytic activity is obtained.

[2] = Toxicity (LD50, TD50) in the mouse; conditions: in vivo
Text: The substances of Formula I are relatively non-toxic substances substantially free of other pharmacologic action.

## O=C(CS)Nc1ccc(S(=O)(=O)O)cc1 [Compound 3, N-(2-MERCAPTOACETYL)SULFANILIC ACID]
[1]; 0.005 Molar, 1 min, 5000 µM
  Percent reduction in viscosity: 34%
[1]; 0.005 Molar, 3 min, 5000 µM
  Percent reduction in viscosity: 47%
[1]; 0.005 Molar, 6 min, 5000 µM
  Percent reduction in viscosity: 50%
[1]; 0.005 Molar, 9 min, 5000 µM
  Percent reduction in viscosity: 50%
[1]; 0.005 Molar, 12 min, 5000 µM
  Percent reduction in viscosity: 47%
[1]; 0.005 Molar, 15 min, 5000 µM
  Percent reduction in viscosity: 44%
[1]; 0.01 Molar, 1 min, 10000 µM
  Percent reduction in viscosity: 46%
[1]; 0.01 Molar, 3 min, 10000 µM
  Percent reduction in viscosity: 64%
[1]; 0.01 Molar, 6 min, 10000 µM
  Percent reduction in viscosity: 66%
[1]; 0.01 Molar, 9 min, 10000 µM
  Percent reduction in viscosity: 68%
[1]; 0.01 Molar, 12 min, 10000 µM
  Percent reduction in viscosity: 77%
[1]; 0.01 Molar, 15 min, 10000 µM
  Percent reduction in viscosity: 82%

## CC(=O)N[C@@H](CS)C(=O)O [NAC, N-acetyl-L-cysteine, reference compound]
[1]; 0.03 Molar, 1 min, 30000 µM
  Percent reduction in viscosity: 25% and 29% and 33%
[1]; 0.03 Molar, 3 min, 30000 µM
  Percent reduction in viscosity: 32% and 33% and 34%
[1]; 0.03 Molar, 6 min, 30000 µM
  Percent reduction in viscosity: 40% and 36%
[1]; 0.03 Molar, 9 min, 30000 µM
  Percent reduction in viscosity: 42% and 40% and 34%
[1]; 0.03 Molar, 12 min, 30000 µM
  Percent reduction in viscosity: 42% and 43% and 34%
[1]; 0.03 Molar, 15 min, 30000 µM
  Percent reduction in viscosity: 40% and 34%
[1]; 0.06 Molar, 1 min, 60000 µM
  Percent reduction in viscosity: 36%
[1]; 0.06 Molar, 3 min, 60000 µM
  Percent reduction in viscosity: 45%
[1]; 0.06 Molar, 6 min, 60000 µM
  Percent reduction in viscosity: 52%
[1]; 0.06 Molar, 9 min, 60000 µM
  Percent reduction in viscosity: 50%
[1]; 0.06 Molar, 12 min, 60000 µM
  Percent reduction in viscosity: 52%
[1]; 0.06 Molar, 15 min, 60000 µM
  Percent reduction in viscosity: 60%

## O=C(CS)Nc1ccc(C(=O)O)cc1 [Compound 1, 4-(2-MERCAPTOACETAMIDO)BENZOIC ACID]
[2]; ip, intraperitoneally, read-out: LD50
  LD50: 1110 mg/kg
[2]; named in the same clause as the oral LD50, read-out: approximate TD50
  TD50: ~250 mg/kg
[2]; oral, read-out: approximate LD50
  LD50: ~2000 mg/kg
[1]; 0.005 Molar, 1 min, 5000 µM
  Percent reduction in viscosity: 32%
[1]; 0.005 Molar, 3 min, 5000 µM
  Percent reduction in viscosity: 50%
[1]; 0.005 Molar, 6 min, 5000 µM
  Percent reduction in viscosity: 57%
[1]; 0.005 Molar, 9 min, 5000 µM
  Percent reduction in viscosity: 55%
[1]; 0.005 Molar, 12 min, 5000 µM
  Percent reduction in viscosity: 55%
[1]; 0.005 Molar, 15 min, 5000 µM
  Percent reduction in viscosity: 55%
[1]; 0.01 Molar, 1 min, 10000 µM
  Percent reduction in viscosity: 45%
[1]; 0.01 Molar, 3 min, 10000 µM
  Percent reduction in viscosity: 63%
[1]; 0.01 Molar, 6 min, 10000 µM
  Percent reduction in viscosity: 69%
[1]; 0.01 Molar, 9 min, 10000 µM
  Percent reduction in viscosity: 76%
[1]; 0.01 Molar, 12 min, 10000 µM
  Percent reduction in viscosity: 82%
[1]; 0.01 Molar, 15 min, 10000 µM
  Percent reduction in viscosity: 84%
[1]
  Relative molar potency compared to N-acetyl-L-cysteine: approximately 12 times

## O=C(CS)Nc1cccc(C(=O)O)c1 [Compound 2, 3-(2-MERCAPTOACETAMIDO)BENZOIC ACID]
[1]; 0.03 Molar, 1 min, 30000 µM
  Percent reduction in viscosity: 44%
[1]; 0.03 Molar, 3 min, 30000 µM
  Percent reduction in viscosity: 67%
[1]; 0.03 Molar, 6 min, 30000 µM
  Percent reduction in viscosity: 81%
[1]; 0.03 Molar, 9 min, 30000 µM
  Percent reduction in viscosity: 89%
[1]; 0.03 Molar, 12 min, 30000 µM
  Percent reduction in viscosity: 91%
[1]; 0.03 Molar, 15 min, 30000 µM
  Percent reduction in viscosity: 93%
[1]
  Mucolytic activity compared to N-acetyl-L-cysteine (in words): substantially more active than N-acetyl-L-cysteine

## CC(=O)SCC(=O)Nc1ccc(C(=O)O)cc1 [Compound 5, 4-[2-(ACETYLTHIO)ACETAMIDO]BENZOIC ACID]
[1]; 0.03 Molar, 1 min, 30000 µM
  Percent reduction in viscosity: 34%
[1]; 0.03 Molar, 3 min, 30000 µM
  Percent reduction in viscosity: 42%
[1]; 0.03 Molar, 6 min, 30000 µM
  Percent reduction in viscosity: 54%
[1]; 0.03 Molar, 9 min, 30000 µM
  Percent reduction in viscosity: 54%
[1]; 0.03 Molar, 12 min, 30000 µM
  Percent reduction in viscosity: 52%
[1]; 0.03 Molar, 15 min, 30000 µM
  Percent reduction in viscosity: 48%
[1]
  Mucolytic activity compared to N-acetyl-L-cysteine (in words): significantly more active than N-acetyl-L-cysteine

## O=C(CS)Nc1ccc(C(=O)NCCO)cc1 [Compound 4, N-(2-HYDROXYETHYL)-4-(2-MERCAPTOACETAMIDO)BENZAMIDE]
[1]; 0.001 Molar, 1 min
  Percent reduction in viscosity: 25%
[1]; 0.001 Molar, 3 min, 1000 µM
  Percent reduction in viscosity: 32%
[1]; 0.001 Molar, 6 min, 1000 µM
  Percent reduction in viscosity: 36%
[1]; 0.001 Molar, 9 min, 1000 µM
  Percent reduction in viscosity: 36%
[1]; 0.001 Molar, 12 min, 1000 µM
  Percent reduction in viscosity: 36%
[1]; 0.001 Molar, 15 min, 1000 µM
  Percent reduction in viscosity: 34%
[1]; 0.002 Molar, 1 min, 2000 µM
  Percent reduction in viscosity: 26%
[1]; 0.002 Molar, 3 min, 2000 µM
  Percent reduction in viscosity: 37%
[1]; 0.002 Molar, 6 min, 2000 µM
  Percent reduction in viscosity: 42%
[1]; 0.002 Molar, 9 min, 2000 µM
  Percent reduction in viscosity: 44%
[1]; 0.002 Molar, 12 min, 2000 µM
  Percent reduction in viscosity: 44%
[1]; 0.002 Molar, 15 min, 2000 µM
  Percent reduction in viscosity: 42%
[1]; 0.005 Molar, 1 min, 5000 µM
  Percent reduction in viscosity: 30%
[1]; 0.005 Molar, 3 min, 5000 µM
  Percent reduction in viscosity: 58%
[1]; 0.005 Molar, 6 min, 5000 µM
  Percent reduction in viscosity: 67%
[1]; 0.005 Molar, 9 min, 5000 µM
  Percent reduction in viscosity: 75%
[1]; 0.005 Molar, 12 min, 5000 µM
  Percent reduction in viscosity: 82%
[1]; 0.005 Molar, 15 min, 5000 µM
  Percent reduction in viscosity: 82%
[1]
  Relative molar potency compared to N-acetyl-L-cysteine: approximately 15 times
